IC50 data for 2 compounds are collected here from US20230226198A1, “Artemisinin Derivatives” (DA ZEN THERANOSTICS, INC., priority 2019, published 2023).

What all share (type): cell-based
Assay [1] concerns Abi-R cells (Abiraterone acetate resistant C4-2B cells). The experiment in a line: MTT cell viability / IC50 assay, Abi-R. The conditions noted are these: Homo sapiens, 48 h. The procedure:
(§1) Cell culture: In the following examples, unless otherwise specified, all cell lines are purchased from American Type Culture Collection and cultured in American Type Culture Collection (ATCC)-recommended media, with fetal bovine serum (FBS) to a final concentration of 10% and 1× penicillin/streptomycin at 37° C. with 5% CO2 in a cell culture incubator, unless otherwise specified. Unless otherwise specified, culture is 2D. Where culture is 3D, low attachment plates are used, with the same media. C4-2B (ATCC® CRL-3315™, human prostate cancer cells of epithelial morphology) parental cell line and drug-resistant cells derived therefrom) are cultured in RPMI-1640 with 10% FBS. MDVR cells (an Enzalutamide-resistant variety of C4-2B prostate cancer cells formed as described below) are cultured as indicated for the parental C4-2B cells. Caki-1 cells (human clear cell renal cell carcinoma cells) are cultured in ATCC-formulated McCoy's 5a Medium Modified (ATCC Catalog No. 30-2007) with 10% FBS. […]
(§2) Each of the cell lines is treated either with a THAD (e.g. DZ-DHA-ether, MI-148-bis-DHA), or for comparison, with the DHA mono-ester “DZ-DHA”; alternatively/additionally, DZ1 and/or unconjugated DHA may serve as comparants. […] The absorbance density of the supernatant is read on a 96-well microplate reader at wavelength 595 nm. […]

The next assay concerns 22Rv1 cells. The assay can be described thus: MTT cell viability / IC50 assay, 22Rv1. The conditions noted are these: Homo sapiens, 22Rv1, 48 h. The procedure:
as §1, §2

A further assay deals with H446 cells. The assay can be described thus: MTT cell viability / IC50 assay, H446. The conditions noted are these: Homo sapiens, NCI-H446, 48 h. The procedure:
as §1, §2

As for `C[C@H]1[C@@H](O)O[C@@H]2O[C@@]3(C)CC[C@H]4[C@H](C)CC[C@@H]1[C@@]24OO3` [DHA, dihydroartemisinin], the IC50 is 669 µM in assay [1], 9.4 µM in the assay on 22Rv1 cells and 287 µM with H446 cells.

As to `C[C@@H]1CC[C@H]2[C@@H](C)C(OC(=O)CCCCCN3/C(=C/C=C4\CCCC(/C=C/C5=[N+](CCCCS(=O)(=O)[O-])c6ccccc6C5(C)C)=C4Cl)C(C)(C)c4ccccc43)O[C@@H]3OC4(C)CC[C@@H]1[C@]32OO4` (stereo in doubt) [DZ3a], the IC50 in assay [1] was determined as 17.1 µM; in the assay with 22Rv1 cells, 0.9 µM; with H446 cells, 12.6 µM.

Broadly, the IC50 is the midpoint of a concentration-inhibition curve. A low value points to greater potency.
